# Results published in patent US20220323443A1, “COMBINATION THERAPY FOR CANCER TREATMENT” (TAKEDA PHARMACEUTICAL COMPANY LIMITED, priority 2019, published 2022).
# Like-named read-outs stand apart in the source and are kept apart here.
# Columns and labels:
# [1] = test system: H-1650 (Lung); experiment: In vitro combination study for selected compounds, additional cell lines; format: cell-based; conditions: drug combined with Compound 1
# Protocol: (§1) In vitro anti-proliferative effects of selected compounds were tested in additional cell lines, including ovarian cancer (SKOV3) and pancreatic cancer (MIA-PACA-2) cell lines.
# [2] = test system: CALU6 (Lung); experiment: as above; format: cell-based; conditions: drug combined with Compound 1
# Protocol: as §1
# [3] = test system: HCT116 cancer cells; experiment: In vitro combination study with Compound 1, Cell Titer-Glo (ATP) cell viability, 72 h; format: cell-based;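 note: combination call from 10×10 dose matrices in duplicate, graded by synergy, with percent activity per well relative to DMSO vehicle controls on the same plate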
# Protocol: (§2) Each combination pair was evaluated in an individual 384-well plate which contained variable doses of both compounds as single agents, as well as two, ten-by-ten matrices (in duplicate) that contained mixtures of the two test compounds. In brief, compounds were added to the cell test plates 16 hours after cell plating and then assessed for viability 72 hours later. Continuous cultures of tumor cells were maintained under standard cell culturing conditions (i.e. in a humidified chamber set at 37° C., containing atmosphere 5% carbon dioxide). […] Seventy-two hours after compound addition, ATP levels were measured to assess cell viability. Plating densities were chosen to ensure optimal linear growth over the 72 hour period.
# (§3) Compound dilution and compound delivery to the assay plates were done on HighRes Robotic System (HighRes Biosolutions, Woburn, Mass., USA) with Echo™ Liquid Handler (Labcyte, Sunnyvale, Calif., USA). […] Next, these were used for compound transfer into cell assay plates. All wells were back-filled to give a constant percentage of DMSO.
# (§4) The final DMSO concentration was held constant in all wells across the plate and was maintained at less than 0.5%. […] Cells treated with vehicle (DMSO) in two rows, or single compound serial dilutions in one plate columns/row served as the untreated control and single compound controls, respectively.
# (§5) Compound activity in A549, COLO205, H460, HCT116, SW48, SW620 cancer cell lines was assessed using Cell Titer-Glo® (Promega [Madison, Wis., USA]). After 72 hours incubation, the plates were treated as per package insert protocol for the Promega Luminescence ATP Detection Systems. Briefly, 25 μL of cell lysis/substrate solution (provided in kit form) was added to each well and the plate was incubated at room temperature for 10 minutes. Luminescence was measured using a PHERAstar multi-label counter (BMG Labtech [Ortenberg, Germany]) or LEADseeker (GE Healthcare Life Sciences [Piscataway, N.J., USA]).
# (§6) Numerical luminescence values were analyzed to generate EC50 curves and evaluate synergy. Raw Data reader files were uploaded along with automation workfiles that defined the plate and well contents. Percent activities were calculated for each well versus plate controls.
# (§7) Each plate representing a single drug combination was analyzed separately. First, the viability measurements were normalized by scaling the data so that the median of the negative controls was 0 and the median of the positive controls was 100.
# (§8) For the combination analysis, a response surface model was used to describe the relationship between the normalized viability and the drug concentrations. The data were fit to the model by minimizing the residual sum of squares. Based on the fitted response surface, plots of constant viability, called isobolograms, were produced.
# (§9) The Combination Index and Nonlinear Blending were used as measures of drug synergy. To calculate Combination Index the 50% isobologram (which is the dose contour that has 50% viability) was used. […] A standard procedure was created to produce a call in order to characterize the viability effects for each combination (synergy, additivity, subadditivity, or antagonism). If the Combination Index existed then these measures were used to make the call.
# [4] = test system: H460 cancer cells; experiment: as above; format: cell-based;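 note: Ten-by-ten dose matrices of both drugs alongside single-agent dilutions, luminescence read 72 hours after compound addition, percent activity per well versus vehicle (DMSO) plate controls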
# [5] = test system: SW620 cancer cells; experiment: as above; format: cell-based;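 note: Ten-by-ten dose matrices of both drugs in 384-well plates, luminescent ATP read-out, synergy evaluated against single-agent and DMSO vehicle controls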
# Protocol: as §2, §3, §4, §5, §6, §7, §8, §9
# [6] = test system: SW48 cancer cells; experiment: as above; format: cell-based
# Protocol: as §2
# Compound dilution and compound delivery to the assay plates were done on HighRes Robotic System (HighRes Biosolutions, Woburn, Mass., USA) with Echo™ Liquid Handler (Labcyte, Sunnyvale, Calif., USA). First, 384-well low dead volume (LDV) plates containing DMSO (Appendix B) and 10 mM compound stock solutions were used to create the required intermediate compound dilution plates. Next, these were used for compound transfer into cell assay plates. All wells were back-filled to give a constant percentage of DMSO.
# as §4, §5, §6, §7, §8, §9
# [7] = test system: COLO205 cancer cells; experiment: as above; format: cell-based, human;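 note: Ten-by-ten dose matrices of both agents in duplicate plus single-agent dilutions, luminescent ATP read-out, percent activity per well relative to DMSO vehicle wells, synergy call from these matrices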
# [8] = test system: ovarian cancer (SKOV3) cell line; experiment: In vitro combination study for selected compounds, additional cell lines; format: cell-based; conditions: drug combined with Compound 1
# Protocol: as §1
# [9] = test system: A549 cancer cells; experiment: In vitro combination study with Compound 1, Cell Titer-Glo (ATP) cell viability, 72 h; format: cell-based;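 note: Ten-by-ten dose matrices of the two agents in duplicate, compounds added 16 h post-plating, activity relative to DMSO vehicle wells, call reflects synergy evaluation from luminescence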
# Protocol: as §2, §3, §4, §5, §6, §7, §8, §9
# [10] = DNA damaging agent combined with Compound 1, 72 h
# [11] = Table 5 drug combined with Compound 1, 72 h
molecule,measurement,setting,value
CC(=O)O[C@H]1C(=O)[C@@]2(C)[C@H]([C@H](OC(=O)c3ccccc3)[C@]3(O)C[C@H](OC(=O)[C@H](O)[C@@H](NC(=O)c4ccccc4)c4ccccc4)C(C)=C1C3(C)C)[C@]1(OC(C)=O)CO[C@@H]1C[C@@H]2O [Paclitaxel],"In vitro combination effect with Compound 1, Lung H-1650",[1],Antagonism
same,"In vitro combination effect with Compound 1, Lung CALU6",[2],Additive
O=C1[O][Pt]2([NH][C@@H]3CCCC[C@H]3[NH]2)[O]C1=O [Oxaliplatin],"Call, anti-proliferative effect of combination with Compound 1, HCT116",[3],Additivity (key: Inconclusive: Any; Additivity: 0.7 to 1.3; Synergy: 0 to 0.7; Subadditivity: 1.3 to 2; Antagonism: >2)
same,"Call, anti-proliferative effect of combination with Compound 1, H460",[4],Additivity (key: Inconclusive: Any; Additivity: 0.7 to 1.3; Synergy: 0 to 0.7; Subadditivity: 1.3 to 2; Antagonism: >2)
same,"Call, anti-proliferative effect of combination with Compound 1, SW620",[5],Synergy (key: Inconclusive: Any; Additivity: 0.7 to 1.3; Synergy: 0 to 0.7; Subadditivity: 1.3 to 2; Antagonism: >2)
same,"Call, anti-proliferative effect of combination with Compound 1, SW48",[6],Additivity (key: Inconclusive: Any; Additivity: 0.7 to 1.3; Synergy: 0 to 0.7; Subadditivity: 1.3 to 2; Antagonism: >2)
same,"Call, anti-proliferative effect of combination with Compound 1, COLO205",[7],Synergy (key: Inconclusive: Any; Additivity: 0.7 to 1.3; Synergy: 0 to 0.7; Subadditivity: 1.3 to 2; Antagonism: >2)
same,"In vitro combination effect with Compound 1, Lung H-1650",[1],Additive
same,"In vitro combination effect with Compound 1, Lung CALU6",[2],Additive
same,"In vitro combination effect with Compound 1, Ovary SKOV3",[8],Additive
bleomycin,"Call, anti-proliferative effect of combination with Compound 1, HCT116",[3],Synergy (key: Inconclusive: Any; Additivity: 0.7 to 1.3; Synergy: 0 to 0.7; Subadditivity: 1.3 to 2; Antagonism: >2)
same,"Call, anti-proliferative effect of combination with Compound 1, H460",[4],Synergy (key: Inconclusive: Any; Additivity: 0.7 to 1.3; Synergy: 0 to 0.7; Subadditivity: 1.3 to 2; Antagonism: >2)
same,"Call, anti-proliferative effect of combination with Compound 1, SW620",[5],Additivity (key: Inconclusive: Any; Additivity: 0.7 to 1.3; Synergy: 0 to 0.7; Subadditivity: 1.3 to 2; Antagonism: >2)
same,"Call, anti-proliferative effect of combination with Compound 1, SW48",[6],Additivity (key: Inconclusive: Any; Additivity: 0.7 to 1.3; Synergy: 0 to 0.7; Subadditivity: 1.3 to 2; Antagonism: >2)
same,"Call, anti-proliferative effect of combination with Compound 1, A549",[9],Additivity (key: Inconclusive: Any; Additivity: 0.7 to 1.3; Synergy: 0 to 0.7; Subadditivity: 1.3 to 2; Antagonism: >2)
same,"Call, anti-proliferative effect of combination with Compound 1, COLO205",[7],Synergy (key: Inconclusive: Any; Additivity: 0.7 to 1.3; Synergy: 0 to 0.7; Subadditivity: 1.3 to 2; Antagonism: >2)
N.N.[Cl][Pt][Cl] [Cisplatin],"Call, anti-proliferative effect of combination with Compound 1, HCT116",[3]; [10],Synergy (0 to 0.7)
same,"Call, anti-proliferative effect of combination with Compound 1, H460",[4]; [10],Synergy (0 to 0.7)
same,"Call, anti-proliferative effect of combination with Compound 1, SW620",[5]; [10],Synergy (0 to 0.7)
same,"Call, anti-proliferative effect of combination with Compound 1, SW48",[6]; [10],Additivity (0.7 to 1.3)
same,"In vitro combination effect with Compound 1, Lung H-1650",[1],Additive
same,"In vitro combination effect with Compound 1, Lung CALU6",[2],Additive
same,"In vitro combination effect with Compound 1, Ovary SKOV3",[8],Additive
Nc1ncn([C@@H]2O[C@H](CO)[C@@H](O)[C@H]2O)c(=O)n1 [Azacitidine],"Call, anti-proliferative effect of combination with Compound 1, HCT116",[3]; [11],Additivity (0.7 to 1.3)
same,"Call, anti-proliferative effect of combination with Compound 1, H460",[4]; [11],Additivity (0.7 to 1.3)
same,"Call, anti-proliferative effect of combination with Compound 1, SW620",[5]; [11],Additivity (0.7 to 1.3)
same,"Call, anti-proliferative effect of combination with Compound 1, SW48",[6]; [11],Additivity (0.7 to 1.3)
same,"Call, anti-proliferative effect of combination with Compound 1, A549",[9]; [11],Additivity (0.7 to 1.3)
same,"Call, anti-proliferative effect of combination with Compound 1, COLO205",[7]; [11],Additivity (0.7 to 1.3)
Nc1ccccc1NC(=O)c1ccc(CNC(=O)OCc2cccnc2)cc1 [Entinostat],"Call, anti-proliferative effect of combination with Compound 1, HCT116",[3]; [11],Additivity (0.7 to 1.3)
same,"Call, anti-proliferative effect of combination with Compound 1, H460",[4]; [11],Synergy (0 to 0.7)
same,"Call, anti-proliferative effect of combination with Compound 1, SW620",[5]; [11],Synergy (0 to 0.7)
same,"Call, anti-proliferative effect of combination with Compound 1, SW48",[6]; [11],Subadditivity (1.3 to 2)
same,"Call, anti-proliferative effect of combination with Compound 1, A549",[9]; [11],Synergy (0 to 0.7)
same,"Call, anti-proliferative effect of combination with Compound 1, COLO205",[7]; [11],Subadditivity (1.3 to 2)
COc1cc([C@@H]2c3cc4c(cc3[C@@H](O[C@@H]3O[C@@H]5CO[C@@H](C)O[C@H]5[C@H](O)[C@H]3O)[C@H]3COC(=O)[C@H]23)OCO4)cc(OC)c1O [Etoposide],"Call, anti-proliferative effect of combination with Compound 1, HCT116",[3]; [11],Synergy (0 to 0.7)
same,"Call, anti-proliferative effect of combination with Compound 1, H460",[4]; [11],Synergy (0 to 0.7)
same,"Call, anti-proliferative effect of combination with Compound 1, SW620",[5]; [11],Synergy (0 to 0.7)
same,"Call, anti-proliferative effect of combination with Compound 1, SW48",[6]; [11],Synergy (0 to 0.7)
same,"Call, anti-proliferative effect of combination with Compound 1, A549",[9]; [11],Synergy (0 to 0.7)
same,"Call, anti-proliferative effect of combination with Compound 1, COLO205",[7]; [11],Synergy (0 to 0.7)
COc1cccc2c1C(=O)c1c(O)c3c(c(O)c1C2=O)C[C@@](O)(C(C)=O)C[C@@H]3O[C@H]1C[C@H](N)[C@H](O)[C@H](C)O1 [Daunorubicin],"Call, anti-proliferative effect of combination with Compound 1, HCT116",[3],Synergy (key: Inconclusive: Any; Additivity: 0.7 to 1.3; Synergy: 0 to 0.7; Subadditivity: 1.3 to 2; Antagonism: >2)
same,"Call, anti-proliferative effect of combination with Compound 1, H460",[4],Additivity (key: Inconclusive: Any; Additivity: 0.7 to 1.3; Synergy: 0 to 0.7; Subadditivity: 1.3 to 2; Antagonism: >2)
same,"Call, anti-proliferative effect of combination with Compound 1, SW620",[5],Synergy (key: Inconclusive: Any; Additivity: 0.7 to 1.3; Synergy: 0 to 0.7; Subadditivity: 1.3 to 2; Antagonism: >2)
same,"Call, anti-proliferative effect of combination with Compound 1, SW48",[6],Additivity (key: Inconclusive: Any; Additivity: 0.7 to 1.3; Synergy: 0 to 0.7; Subadditivity: 1.3 to 2; Antagonism: >2)
same,"Call, anti-proliferative effect of combination with Compound 1, A549",[9],Additivity (key: Inconclusive: Any; Additivity: 0.7 to 1.3; Synergy: 0 to 0.7; Subadditivity: 1.3 to 2; Antagonism: >2)
same,"Call, anti-proliferative effect of combination with Compound 1, COLO205",[7],Additivity (key: Inconclusive: Any; Additivity: 0.7 to 1.3; Synergy: 0 to 0.7; Subadditivity: 1.3 to 2; Antagonism: >2)
COC1=CC(c2cc3ccccc3[nH]2)=N/C1=C\c1[nH]c(C)cc1C [Obatoclax],"Call, anti-proliferative effect of combination with Compound 1, HCT116",[3]; [11],Additivity (0.7 to 1.3)
same,"Call, anti-proliferative effect of combination with Compound 1, H460",[4]; [11],Synergy (0 to 0.7)
same,"Call, anti-proliferative effect of combination with Compound 1, SW620",[5]; [11],Synergy (0 to 0.7)
same,"Call, anti-proliferative effect of combination with Compound 1, SW48",[6]; [11],Additivity (0.7 to 1.3)
same,"Call, anti-proliferative effect of combination with Compound 1, A549",[9]; [11],Additivity (0.7 to 1.3)
same,"Call, anti-proliferative effect of combination with Compound 1, COLO205",[7]; [11],Additivity (0.7 to 1.3)
CO[C@@]12[C@H](COC(N)=O)C3=C(C(=O)C(C)=C(N)C3=O)N1C[C@@H]1N[C@@H]12 [Mitomycin C],"Call, anti-proliferative effect of combination with Compound 1, HCT116",[3]; [10],Synergy (0 to 0.7)
same,"Call, anti-proliferative effect of combination with Compound 1, H460",[4]; [10],Synergy (0 to 0.7)
same,"Call, anti-proliferative effect of combination with Compound 1, SW620",[5]; [10],Synergy (0 to 0.7)
same,"Call, anti-proliferative effect of combination with Compound 1, SW48",[6]; [10],Synergy (0 to 0.7)
same,"Call, anti-proliferative effect of combination with Compound 1, A549",[9]; [10],Synergy (0 to 0.7)
same,"Call, anti-proliferative effect of combination with Compound 1, COLO205",[7]; [10],Subadditivity (1.3 to 2)
COc1cc([C@@H]2c3cc4c(cc3[C@@H](O[C@@H]3O[C@@H]5CO[C@@H](c6cccs6)O[C@H]5[C@H](O)[C@H]3O)[C@H]3COC(=O)[C@H]23)OCO4)cc(OC)c1O [Teniposide],"Call, anti-proliferative effect of combination with Compound 1, HCT116",[3]; [10],Synergy (0 to 0.7)
same,"Call, anti-proliferative effect of combination with Compound 1, H460",[4]; [10],Synergy (0 to 0.7)
same,"Call, anti-proliferative effect of combination with Compound 1, SW620",[5]; [10],Synergy (0 to 0.7)
same,"Call, anti-proliferative effect of combination with Compound 1, SW48",[6]; [10],Synergy (0 to 0.7)
same,"Call, anti-proliferative effect of combination with Compound 1, A549",[9]; [10],Synergy (0 to 0.7)
same,"Call, anti-proliferative effect of combination with Compound 1, COLO205",[7]; [10],Synergy (0 to 0.7)
